# Measured values published in patent US6699682B2, “Assay for inhibitors of fatty-acid amide hydrolase” (The Scripps Research Institute, priority 1995, dated 2004).
# Like-named read-outs stand apart in the source and are kept apart here. Where a SMILES comes first, the peptide text is derived from it. [ ]: non-standard residue; d: D form. The star is where a group is joined. Sta = CC(C)C[C@H](N)[C@@H](O)CC(=O)O; Isovaleryl = CC(C)CC(=O)*
# How the values were obtained:
# rats = test: effect on spontaneous behavior of rats after ip injection (induction of sleep); assay type: in vivo, rat; details: for sleep-inducing pharmacological effect compared with cis-9,10-octadecenoamide: rats, ip
# Experimental: Synthetic cis-9,10-octadecenoamide was injected (ip) into rats in order to test its effect on spontaneous behavior at different doses: 1 (n=2), 2 (n=2), 5 (n=7), 10 (n=10), 20 (n=2), and 50 (n=2) mg, where n = number of rats tested. […] However, at a threshold of 5 mg and above there was a marked effect consisting of an induction of long-lasting motor quiescence associated with eyes closed, sedated behavior characteristic of normal sleep. Also as with normal sleep, the rats still responded to auditory stimuli with orienting reflex and sustained attention toward the source of stimulation. In addition, motor behavior was impaired. The latency to behavioral sedation following administration was about 4 minutes and subjects were normally active again after 1 hour (5 mg), 2 hour (10 mg), or 2.5 hour (20 mg and 50 mg).
# We have compared cis-9,10-octadecenoamide to vehicle and the synthetic analogs listed in FIG. 1 to estimate the structural specificity of its sleep-inducing potential. […] More particularly, male Sprague-Dawley rats (300 g at the time of surgery) were implanted under halothane anesthesia (2-3%) with a standard set of electrodes for sleep recordings. This included two screw electrodes placed in the parietal bone over the hippocampus to record the subjects electroencephalogram (EEG) and two wire electrodes inserted in the neck musculature to record postural tone through electromyographic activity (EMG). Rats were housed individually with at libitum access to food and water. The dark-light cycle was controlled (12:12, lights on a 10:00 p.m.). One week after the surgery, rats were habituated to the recording conditions for at least three days. Upon the completion of the habituation period, rats received 2 milliliter (ip) of either: vehicle (5% ethanol/saline solution), cis-9,10-octadecenoamide (10 mg), or oleic acid (10 mg). […] Sleep recordings were visually scored and four stages were determined: wakefulness, slow-wave-sleep 1 (SWS1), slow-wave-sleep 2 (SWS2), and rapid eye movement (REM) sleep.
# [1] = target: T1, recombinant expressed rat FAAH (Rattus norvegicus, UniProt P97612); test: FAAH hydrolysis assays with 14C-labeled fatty acid amide substrates (TLC, scintillation counting); assay type: biochemical; details: for Rate of Hydrolysis: 35 μg transfected COS-7 cell protein, 5 minutes, 37° C.
# T1 construct: expressed in transfected cells; host or cells: COS-7 cells, transient, pcDNA3; dounce-homogenised cell extract
# T1 sequence (P97612 1-579): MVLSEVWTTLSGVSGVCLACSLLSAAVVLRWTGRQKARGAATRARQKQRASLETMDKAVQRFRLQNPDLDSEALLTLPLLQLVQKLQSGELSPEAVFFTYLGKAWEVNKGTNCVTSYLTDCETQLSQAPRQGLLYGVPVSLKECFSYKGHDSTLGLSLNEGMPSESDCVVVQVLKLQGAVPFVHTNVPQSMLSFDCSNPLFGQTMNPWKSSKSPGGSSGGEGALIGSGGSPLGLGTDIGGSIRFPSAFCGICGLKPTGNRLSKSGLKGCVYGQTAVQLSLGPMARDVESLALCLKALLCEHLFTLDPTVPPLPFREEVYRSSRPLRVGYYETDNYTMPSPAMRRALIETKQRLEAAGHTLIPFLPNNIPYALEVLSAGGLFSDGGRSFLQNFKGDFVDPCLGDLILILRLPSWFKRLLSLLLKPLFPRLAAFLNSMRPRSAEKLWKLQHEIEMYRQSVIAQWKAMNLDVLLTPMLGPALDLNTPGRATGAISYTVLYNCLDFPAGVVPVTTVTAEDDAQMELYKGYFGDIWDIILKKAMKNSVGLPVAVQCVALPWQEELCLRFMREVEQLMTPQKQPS
# Experimental: Therefore, COS-7 cells transfected with the rat FAAH cDNA were assayed for anandamide hydrolase activity. To assess the enzymatic activity of the expressed recombinant fatty acid amide hydrolases of this invention on labeled anandamide, the following enzymatic assay was performed. ^14C-anandamide was synthesized as follows: 12.5 μCi (specific activity of 50 μCi/μM) of ^14C arachidonic acid (Moravek Biochemicals) was dissolved in 100 μl CH2Cl2, cooled to 0° C., and treated with excess oxalyl chloride. The reaction mixture was stirred at 25° C. for 6 hours, after which time the solvent was evaporated. The remaining residue was cooled to 0° C., treated with a large excess of ethanolamine, and stirred at 25° C. for 15 minutes. The reaction mixture was then partitioned between ethyl acetate and 2 M HCl, and the organic layer was washed with water and then evaporated to dryness. The resulting ^14C-anandamide was diluted with unlabeled anandamide to a final specific activity of 5 μCi/μM in ethanol. Approximately 1 μCi of ^14C-anandamide and 20 μl of dounce homogenized COS-7 cell extract were used for each anandamide hydrolase assay as detailed above for the oleamide hydrolase assays. Briefly, FAAH hydrolysis assays were conducted in triplicate with 100 μM substrate, 35 μg of rat transfected COS-7 cell protein for 5 minutes at 37° C. (except in the case of stearic amide, where due to low solubility, 20 μM substrate comparison to oleamide were conducted). Products were separated on TLC as described previously, scraped into scintillation fluid, and radioactivity was quantitated by scintillation counting. Substrate hydrolysis in the presence of equal amounts of untransfected COS-7 cell protein extract served as background control in all cases and was substracted from FAAH hydrolysis rates to give the data as presented below.
# To further assess the substrate specificity spectrum of enyzmatic hydolytic activity of the recombinant expressed proteins of this invention, other ^14C-labeled fatty acid amides were synthesized as described in Section B6 and above for ^14C-oleamide, with the exception of anandamide as described.
# Where indicated in the table the anandamide and oleamide hydrolysis rates are considered to be 100% of FAAH activity to which other fatty acid amide hydrolysis rates are compared.
# [2] = test system: amidase activity which catalyzes both the hydrolysis and synthesis of arachidonylethanolamide (anandamide); details: cited from earlier work
# [3] = target: T2, FAAH activity of a rat brain membrane fraction (Rattus norvegicus, UniProt P97612); assay type: biochemical; details: for inhibition of cis-9,10-octadecenoamide hydrolysis (lipid amidase) activity: 1 mM
# T2 construct: Cis-9,10-octadecenoamide with rat brain membrane fraction +1 mM phenylmethylsulfonyl fluoride (PMSF); from tissue; host or cells: rat brain membrane fraction
# T2 sequence (P97612 1-579): T1 sequence (P97612 1-579)
# Experimental: In each case the enzymic reaction is performed is a separate reaction vessel and the product is spotted onto a TLC plate.
# neuroblastoma cells = details: anandamide incubated with neuroblastoma cells; cited from earlier work
# recombinant rat FAAH = target: T3, recombinant rat FAAH (Rattus norvegicus, UniProt P97612); test: oleamide hydrolase activity of rat FAAH-transfected COS-7 cell extract and its inhibition (TLC); assay type: biochemical; details: versus untransfected and control transfected cells
# T3 construct: expressed in transfected cells; host or cells: COS-7 cells, transient, pcDNA3; dounce-homogenised cell extract
# T3 sequence (P97612 1-579): T1 sequence (P97612 1-579)
# Experimental: The following thin layer chromatography (TLC) protocol is used for assaying cis-9,10 octadecenoamide hydrolysis activity, also referred to as fatty-acid amide hydrolase activity. Oleamide is first labeled with ^14C. To accomplish this, ^14C-Oleic acid (1-10 μM, Moravek Biochemicals, 5-50 μCi/μM) in CH2CL2 (200 μL, 0.005-0.05 M) at 0° C. was treated with excess oxalyl chloride and the reaction mixture was warmed to 25° C. for 6 hours. The reaction mixture was then concentrated under a constant stream of gaseous nitrogen and the remaining residue was cooled to 0° C. and treated with excess saturated aqueous ammonium hydroxide. After 5 minutes, the reaction mixture was partitioned between Et)Ac (1.5 mL) and 10% HCl (1.0 mL). The organic layer was then washed with water (1.0 mL) and concentrated under a constant stream of gaseous nitrogen to provide ^14C-oleamide in quantitative yield as judged by TLC (60% EtOAc in hexanes; oleamide Rf−0.2; oleic acid Rf−0.8). […]
# While untransfected COS-7 cells contained negligible amounts of oleamide hydrolase activity, COS-7 cells transfected with the rat FAAH cDNA expressed high levels of oleamide hydrolase activity (FIG. 15A). The assay was performed as described in Section B where by TLC the conversion of oleamide to oleic acid was assessed. […]
compound,measurement,setting,value
"CCCCCCCCC/C=C\CCCCCCC(N)=O [Compound 3, Cis-8,9-octadecenoamide]","sleep-inducing pharmacological effect compared with cis-9,10-octadecenoamide",rats,substantial reduction in both the degree and duration of the pharmacological effects
"CCCCCCCCCCCCCCCC(N)=O [Palmitic Amide, palmitic amide]",% of FAAH activity (anandamide hydrolysis rate = 100%),[1]; 100 μM substrate,9.9%
same,Rate of Hydrolysis,[1]; 100 μM substrate,33 ± 2 nmol/min/mg
"CCCCCCCCCCCCCC(N)=O [Myristic Amide, myristic amide]",% of FAAH activity (anandamide hydrolysis rate = 100%),[1]; 100 μM substrate,24.3%
same,Rate of Hydrolysis,[1]; 100 μM substrate,81 ± 7 nmol/min/mg
CC(C)C[C@H](NC(=O)[C@@H](NC(=O)N[C@@H](Cc1ccccc1)C(=O)O)[C@@H]1CCN=C(N)N1)C(=O)N[C@H](C=O)Cc1ccccc1 [chymostatin],effect of other inhibitors on the amidase activity,[2],little or no effect
N=C(N)c1ccccc1 [benzamidine],effect of other inhibitors on the amidase activity,[2],little or no effect
CC(C)CC(=O)N[C@H](C(=O)N[C@H](C(=O)N[C@@H](CC(C)C)[C@@H](O)CC(=O)N[C@@H](C)C(=O)N[C@@H](CC(C)C)[C@@H](O)CC(=O)O)C(C)C)C(C)C [pepstatin] (Isovaleryl-VV[Sta]A[Sta]-OH),effect of other inhibitors on the amidase activity,[2],little or no effect
"CCCCCC/C=C\CCCCCCCCCC(N)=O [Compound 4, Cis-11,12-octadecenoamide]","sleep-inducing pharmacological effect compared with cis-9,10-octadecenoamide",rats,substantial reduction in both the degree and duration of the pharmacological effects
"CCCCCCCC/C=C\CCCCCCCC(=O)O [oleic acid, Oleic Acid]","sleep-inducing pharmacological effect compared with cis-9,10-octadecenoamide",rats,nor oleic acid (5) showed any overt behavioral effect
"O=S(=O)(F)Cc1ccccc1 [PMSF, phenylmethylsulfonyl fluoride]","inhibition of cis-9,10-octadecenoamide hydrolysis (lipid amidase) activity",[3],inhibited
same,"inhibition of cis-9,10-octadecenoamide hydrolysis (lipid amidase) activity",[3]; listed as phenylmethylsulfonyl fluoride,completely inhibited
same,inhibition of the amidase activity,[2]; 1.5 mM concentration,completely inhibited
"CCCCCCCC/C=C\CCCCCCCCCCCC(N)=O [Compound 6, Erucamide]","sleep-inducing pharmacological effect compared with cis-9,10-octadecenoamide",rats,substantial reduction in both the degree and duration of the pharmacological effects
"CCCCCCCC/C=C/CCCCCCCC(N)=O [Trans-9,10-octadecenoamide]",duration of the biological (sleep-inducing) effect,rats; 10 mg per rat,one hour
same,"sleep-inducing pharmacological effect compared with cis-9,10-octadecenoamide",rats,much less potent
"[Cl][Hg][Cl] [HgCl2, mercuric chloride]",inhibition of lipid amidase activity,[3]; 50 mM,inhibited
"CCCCCCCCCCCCCCCCCC(N)=O [Stearic Amide, stearic amide]",% of FAAH activity (oleamide hydrolysis rate = 100%),[1]; 20 μM substrate,5.8%
same,Rate of Hydrolysis,[1]; 20 μM substrate,2.3 ± 1 nmol/min/mg
CC(=O)N[C@@H](CC(C)C)C(=O)N[C@@H](CC(C)C)C(=O)N[C@H](C=O)CCCNC(=N)N [leupeptin],effect of other inhibitors on the amidase activity,[2],little or no effect
arachidonyl trifluoromethyl ketone,increase of anandamide levels in the presence of the inhibitor,neuroblastoma cells,5 fold
"CCCCC/C=C\C/C=C\C/C=C\C/C=C\CCCC(=O)NCCO [Anandamide, arachidonylethanolamide]","conversion of labeled substrate by rat FAAH-transfected COS-7 cells (qualitative, TLC)",recombinant rat FAAH,high levels of anandamide hydrolase activity
same,% of FAAH activity (anandamide hydrolysis rate = 100%),[1]; 100 μM substrate,100%
same,Rate of Hydrolysis,[1]; 100 μM substrate,333 ± 30 nmol/min/mg
aprotinin,effect of other inhibitors on the amidase activity,[2],little or no effect
